Active and inactive are the calls of the source. No cut-off for these calls is given here.
What was measured:
[1] = tested on: T1, Serine/threonine-protein kinase toxin HipA (Escherichia coli (strain K12)), P23874 [D309Q]; experiment: Binding affinity to Escherichia coli HipA D309Q mutant expressed in Escherichia coli BL21 (DE3) assessed as fast-on/fast-off type binding at 6.25 to 100 uM by surface plasmon resonance assay
T1 sequence (whole entry): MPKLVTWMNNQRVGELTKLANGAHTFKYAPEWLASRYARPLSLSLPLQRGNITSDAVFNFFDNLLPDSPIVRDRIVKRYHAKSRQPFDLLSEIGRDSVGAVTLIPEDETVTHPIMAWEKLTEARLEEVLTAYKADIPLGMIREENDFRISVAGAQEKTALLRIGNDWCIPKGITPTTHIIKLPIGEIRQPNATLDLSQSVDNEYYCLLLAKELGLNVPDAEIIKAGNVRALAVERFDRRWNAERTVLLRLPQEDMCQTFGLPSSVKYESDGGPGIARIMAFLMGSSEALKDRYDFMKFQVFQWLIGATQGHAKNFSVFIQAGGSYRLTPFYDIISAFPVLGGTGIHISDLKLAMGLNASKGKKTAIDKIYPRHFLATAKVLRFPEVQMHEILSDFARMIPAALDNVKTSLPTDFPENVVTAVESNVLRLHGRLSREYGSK

Escherichia coli K-12 [2] = experiment: (§1) Inhibition of HipA in Escherichia coli K-12 MG1655 assessed as reduction of persister fraction incubated for 8 hrs in presence of kanamycin
[3] = as §1
Escherichia coli K-12 [4] = experiment: Inhibition of HipA in Escherichia coli K-12 MG1655 assessed as reduction of persister fraction at 250 uM incubated for 8 hrs in presence of ampicillin relative to control
Escherichia coli [5] = experiment: Cytotoxicity against Escherichia coli K-12 MG1655 cells at 250 uM; assay type: organism-based
[6] = target: Serine/threonine-protein kinase toxin HipA (Escherichia coli (strain K12), UniProt P23874, D309Q); experiment: (§2) Binding affinity to Escherichia coli HipA D309Q mutant expressed in Escherichia coli BL21 (DE3) by surface plasmon resonance assay
[7] = tested on: T1, Serine/threonine-protein kinase toxin HipA (Escherichia coli (strain K12)), P23874 [D309Q]; experiment: as §2
Escherichia coli K-12 [8] = experiment: (§3) Inhibition of HipA in Escherichia coli K-12 MG1655 assessed as reduction of persister fraction incubated for 8 hrs in presence of ampicillin
[9] = as §3
Escherichia coli K-12 [10] = experiment: Inhibition of HipA in Escherichia coli K-12 MG1655 assessed as reduction of persister fraction incubated for 8 hrs in presence of kanamycin relative to control
[11] = tested on: T1, Serine/threonine-protein kinase toxin HipA (Escherichia coli (strain K12)), P23874 [D309Q]; experiment: Binding affinity to Escherichia coli HipA D309Q mutant expressed in Escherichia coli BL21 (DE3) assessed as slow-on/fast-off type binding at 0.00015 to 8.75 uM by surface plasmon resonance assay
Escherichia coli [12] = experiment: Antipersistence effect in hipA knockout Escherichia coli assessed as reduction of persister fraction at 200 uM in presence of ampicillin; assay type: functional, organism-based
[13] = tested on: T1, Serine/threonine-protein kinase toxin HipA (Escherichia coli (strain K12)), P23874 [D309Q]; experiment: Binding affinity to Escherichia coli HipA D309Q mutant expressed in Escherichia coli BL21 (DE3) assessed as slow-on/fast-off type binding at 3.125 to 87.5 uM by surface plasmon resonance assay
[14] = tested on: T1, Serine/threonine-protein kinase toxin HipA (Escherichia coli (strain K12)), P23874 [D309Q]; experiment: Binding affinity to Escherichia coli HipA D309Q mutant expressed in Escherichia coli BL21 (DE3) assessed as slow-on/slow-off type binding at 3.125 to 100 uM by surface plasmon resonance assay

CCN1CCN(CCNC(=O)c2cccc(Nc3cc(-c4ccccc4)ncn3)c2)CC1
Activity [1]: Active | inhibition (Escherichia coli K-12 [2]): Dose-dependent effect | EC50 [3]: 111 µM | fold change (FC) (Escherichia coli K-12 [4]): 5 | Activity (Escherichia coli [5]): Non-toxic | Kd [6]: 54 µM | Activity [7]: Dose-dependent effect | inhibition (Escherichia coli K-12 [8]): Dose-dependent effect | EC50 [9]: 126 µM | fold change (FC) (Escherichia coli K-12 [10]): 5

CCc1ccc(C2C(C(=O)c3ccc(OC)cc3)=C(O)C(=O)N2CCc2c[nH]c3ccccc23)cc1 (stereo not drawn)
inhibition (Escherichia coli K-12 [2]): Dose-dependent effect | EC50 [3]: 28 µM | fold change (FC) (Escherichia coli K-12 [4]): 5 | Activity (Escherichia coli [5]): Non-toxic | Activity [11]: Active | Kd [6]: 0.27 µM | Activity [7]: Dose-dependent effect | Activity (Escherichia coli [12]): inactive | inhibition (Escherichia coli K-12 [8]): Dose-dependent effect | EC50 [9]: 46 µM | Activity [13]: Active | fold change (FC) (Escherichia coli K-12 [10]): > 1

CCOC(=O)c1ccc(NC(=O)CSc2nnc(CSc3nc(C)cc(C)n3)o2)cc1
inhibition (Escherichia coli K-12 [2]): Dose-dependent effect | EC50 [3]: 43 µM | fold change (FC) (Escherichia coli K-12 [4]): 2 | Activity (Escherichia coli [5]): Non-toxic | Activity [11]: Active | Kd [6]: 35 µM | Activity [7]: Dose-dependent effect | inhibition (Escherichia coli K-12 [8]): Dose-dependent effect | EC50 [9]: 116 µM | Activity [13]: Active | fold change (FC) (Escherichia coli K-12 [10]): 3

COc1cc(NC(=O)c2cc3nc(-c4ccc(F)cc4)cc(C)n3n2)cc([N+](=O)[O-])c1
inhibition (Escherichia coli K-12 [2]): Dose-dependent effect | EC50 [3]: 101 µM | fold change (FC) (Escherichia coli K-12 [4]): 5 | Activity (Escherichia coli [5]): Non-toxic | Kd [6]: 43 µM | Activity [7]: Dose-dependent effect | inhibition (Escherichia coli K-12 [8]): Dose-dependent effect | EC50 [9]: 84 µM | fold change (FC) (Escherichia coli K-12 [10]): 5 | Activity [14]: Active

Reference: ChEMBL document CHEMBL3808302, “Novel Inhibitors of Toxin HipA Reduce Multidrug Tolerant Persisters” (ACS Med Chem Lett, 2016)
